The values below come from patent US20080267882A1, “Imaging compounds, methods of making imaging compounds, methods of imaging, therapeutic compounds, methods of making therapeutic compounds, and methods of therapy” (Stanford University, priority 2007, published 2008).

A short description of data set [1]: in vivo. Conditions: female, athymic nude, mouse, iv, total radioactivity; for tissue uptake at 6 h / tissue uptake at 20 h: 9.3 MBq. The protocol:
PET scans and image analysis were performed using a microPET R4 rodent model scanner (Siemens Medical Solutions) as previously reported (J Nucl Med 2006;47:113-121 and J Nucl Med 2005;46:1707-1718, each of which is incorporated herein by reference for the corresponding discussion). Each mouse was tail-vein injected with about 3.7 MBq (100 μCi) of ^18F-FPRGD2 under isoflurane anesthesia. The 30-min dynamic scan (1×30 s, 4×1 min, 1×1.5 min, 4×2 min, 1×2.5 min, 4×3 min, total of 15 frames) was started 1 min after injection. Five min static PET images were also acquired at 1 h and 2 h post-injection (p.i.). The images were reconstructed by a 2-dimensional ordered-subsets expectation maximum (OSEM) algorithm and no correction was applied for attenuation or scatter.
PET scans and image analysis were performed using a microPET R4 rodent model scanner (Siemens Medical Solutions) as previously reported. For U87MG tumor model, mice (n=3) were tail-vein injected with about 3.7 MBq (100 μCi) of ^18F-FPRGD4 under isoflurane anesthesia and then subjected to a 30-min dynamic scan (1×30 s, 4×1 min, 1×1.5 min, 4×2 min, 1×2.5 min, 4×3 min, total of 15 frames) starting from 1 min p.i. Five min static PET images were also acquired at 1, 2, and 3 h p.i. The images were reconstructed by 2-dimensional ordered-subsets expectation maximum (OSEM) algorithm. No attenuation or scatter correction was applied. […] The 5-min static PET scans was then acquired at 30 min and 1 h p.i. Multiple time point static scans were also obtained for orthotopic MDA-MB-435, c-neu oncomouse, and subcutaneous DU145 tumor models after tail-vein injected with 3.7 MBq of ^18F-FPRGD4.
For each microPET scan, regions of interest (ROIs) were drawn over the tumor, normal tissue, and major organs by using vendor software (ASI Pro 5.2.4.0) on decay-corrected whole-body coronal images. The maximum radioactivity concentration (accumulation) within a tumor or an organ was obtained from mean pixel values within the multiple ROI volume, which were converted to counts/mL/min by using a conversion factor. Assuming a tissue density of 1 g/mL, the ROIs were converted to counts/g/min and then divided by the administered activity to obtain an imaging ROI-derived % ID/g. […]
PET scans and image analysis were performed using a microPET R4 rodent model scanner (Siemens Medical Solutions) as previously reported (J Nucl Med. 2005;46:1707-1718 and J Nucl Med. 2006;47:113-121, each of which is incorporated herein by reference for the corresponding discussion). About 9.3 MBq of ^64Cu-DOTA-RGD multimer was intravenously injected into each mouse under isoflurane anesthesia. Five minute static scans were acquired at 30 min, 1 h, 2 h, 6 h, and 20 h p.i. The images were reconstructed by a 2-dimensional ordered-subsets expectation maximum (OSEM) algorithm and no correction was applied for attenuation and scatter. For each microPET scan, regions of interest (ROIs) were drawn over the tumor, normal tissue, and major organs on decay-corrected whole-body coronal images. The radioactivity concentration (accumulation) within a tumor was obtained from the maximum value within the multiple ROIs and then converted to % ID/g.
PET scans and image analysis were performed using a microPET R4 rodent model scanner (Siemens Medical Solutions) as previously reported (J Nucl Med. 2006;47:113-21 and J Nucl Med. 2005;46:1707-18, which is incorporated herein by reference for the corresponding discussion). […] The 60-min dynamic scan (5×1 min, 10×3 min, 5×5 min, total of 20 frames) was started 1 min after injection. A 2 h time point static scan was also acquired after the 60 min dynamic scan. Five min static PET images were also acquired separately at 30 min, 1 h and 2 h time points post-injection (p.i.) for another set of tumor-bearing mice (n=3/tracer). The images were reconstructed by a 2-dimensional ordered-subsets expectation maximum (OSEM) algorithm and no correction was necessary for attenuation or scatter correction. […]

Data set [2] in a line: in vivo. Conditions: c-neu oncomouse (MMTV/c-neu transgenic), mouse, iv, total radioactivity; for tissue uptake at 20 h: 9.3 MBq. The protocol:
All animal experiments were performed under a protocol approved by Stanford's Administrative Panel on Laboratory Animal Care. […] The c-neu oncomouse (Charles River Laboratories, Charles River, Canada) is a spontaneous tumor-bearing model that carries an activated c-neu oncogene driven by a mouse mammary tumor virus (MMTV) promoter (Cell 1988;54:105-115, which is incorporated herein by reference for the corresponding discussion). Transgenic mice uniformly expressing the MMTV/c-neu gene develop mammary adenocarcinomas between 4 and 8 months postpartum that involve the entire epithelium in each gland. […] Each mouse was tail-vein injected with about 3.7 MBq (100 μCi) of ^18[…]2 under isoflurane anesthesia. The 30-min dynamic scan (1×30 s, 4×1 min, 1×1.5 min, 4×2 min, 1×2.5 min, 4×3 min, total of 15 frames) was started 1 min after injection. Five min static PET images were also acquired at 1 h and 2 h post-injection (p.i.). The images were reconstructed by a 2-dimensional ordered-subsets expectation maximum (OSEM) algorithm and no correction was applied for attenuation or scatter. […] Animal procedures were performed according to a protocol approved by the Stanford University Institutional Animal Care and Use Committee. […] The c-neu oncomouse (Charles River Laboratories, Charles River, Canada) is a spontaneous tumor-bearing model that carries an activated c-neu oncogene driven by a mouse mammary tumor virus (MMTV) promoter (Cell. 1988;54:105-115, which is incorporated herein by reference for the corresponding discussion). Transgenic mice uniformly expressing the MMTV/c-neu gene develop mammary adenocarcinomas between 4 and 8 months postpartum that involve the entire epithelium in each gland. […] PET scans and image analysis were performed using a microPET R4 rodent model scanner (Siemens Medical Solutions) as previously reported. […] Five min static PET images were also acquired at 1, 2, and 3 h p.i. The images were reconstructed by 2-dimensional ordered-subsets expectation maximum (OSEM) algorithm. No attenuation or scatter correction was applied. […] The 5-min static PET scans was then acquired at 30 min and 1 h p.i. […] Animal procedures were performed according to a protocol approved by Stanford University Institutional Animal Care and Use Committee. […] Transgenic mice uniformly expressing the MMTV/c-neu gene develop mammary adenocarcinomas (4 to 8 months postpartum) that involve the entire epithelium in each gland. […] Five minute static scans were acquired at 30 min, 1 h, 2 h, 6 h, and 20 h p.i. […] The radioactivity concentration (accumulation) within a tumor was obtained from the maximum value within the multiple ROIs and then converted to % ID/g.

The nature of data set [3]: in vivo. Conditions: female, athymic nude, mouse, total radioactivity. The protocol:
All mice were sacrificed and dissected at 20 h post-injection (p.i.) of the tracer. Blood, U87MG tumor, major organs and tissues were collected and wet weighed. The radioactivity in the tissue was measured using a γ-counter (Packard). The results were presented as percentage injected dose per gram of tissue (% ID/g).

Data set [4] deals with rat myocardial infarction. The data set can be described thus: microPET imaging of rat myocardial infarction. It counts as in vivo. Conditions: scan 1 h after injection. From the text: Induction of MI was done as previously described by our laboratory. Adult female Sprague-Dawley rats (weight 150-200 g; Charles River Laboratories, Wilmington, Mass.) were used for this study. […] The anesthesia was then maintained with isoflurane (2%). MI was induced by ligation of the left anterior descending coronary artery 2 to 3 mm from the tip of the left auricle with a 7-0 polypropylene suture. […] In the sham operated animals, a suture was placed in the myocardium (without ligating the left coronary artery). Animals were anesthetized with isofluorane (2%) and injected with approximately 1 mCi (37 MBq) of ^64Cu-DOTA-[…]2) via the tail vein and allowed to recover. […] At the time of scanning, animals were anesthesized with isofluorane (2%) and prone positioned on the microPET Concorde R4 rodent model scanning gantry (Siemens A G, Malvern, Pa.). The scanner has a computer-controlled bed and 10.8-cm transaxial and 8-cm axial fields of view (FOV). […] It has no septa and operates exclusively in the 3-dimensional list mode. A 15 minute static acquisition was performed with the mid thorax in the center of the field of view (FOV), and images reconstructed using a filtered back projection algorithm.

Setting [5] is: 10 mg/kg, U87MG tumor uptake with blocking.

Each structure is given as a SMILES string.

What is called tissue uptake is the percentage of the injected dose found per gram of tissue. For `N=C(N)NCCC[C@@H]1NC(=O)[C@H](CCCCNC(=O)CC[C@H](NC(=O)CC[C@H](NC(=O)CC[C@H](NC(=O)CN2CCN(CC(=O)O)CCN(CC(=O)O)CCN(CC(=O)O)CC2)C(=O)N[C@@H](CCC(=O)N[C@@H](CCC(=O)NCCCC[C@@H]2NC(=O)[C@@H](Cc3ccc(O)cc3)NC(=O)[C@H](CC(=O)O)NC(=O)CNC(=O)[C@H](CCCNC(=N)N)NC2=O)C(=O)NCCCC[C@@H]2NC(=O)[C@@H](Cc3ccc(O)cc3)NC(=O)[C@H](CC(=O)O)NC(=O)CNC(=O)[C@H](CCCNC(=N)N)NC2=O)C(=O)N[C@@H](CCC(=O)NCCCC[C@@H]2NC(=O)[C@@H](Cc3ccc(O)cc3)NC(=O)[C@H](CC(=O)O)NC(=O)CNC(=O)[C@H](CCCNC(=N)N)NC2=O)C(=O)NCCCC[C@@H]2NC(=O)[C@@H](Cc3ccc(O)cc3)NC(=O)[C@H](CC(=O)O)NC(=O)CNC(=O)[C@H](CCCNC(=N)N)NC2=O)C(=O)N[C@@H](CCC(=O)NCCCC[C@@H]2NC(=O)[C@@H](Cc3ccc(O)cc3)NC(=O)[C@H](CC(=O)O)NC(=O)CNC(=O)[C@H](CCCNC(=N)N)NC2=O)C(=O)NCCCC[C@@H]2NC(=O)[C@@H](Cc3ccc(O)cc3)NC(=O)[C@H](CC(=O)O)NC(=O)CNC(=O)[C@H](CCCNC(=N)N)NC2=O)C(=O)NCCCC[C@@H]2NC(=O)[C@@H](Cc3ccc(O)cc3)NC(=O)[C@H](CC(=O)O)NC(=O)CNC(=O)[C@H](CCCNC(=N)N)NC2=O)NC(=O)[C@@H](Cc2ccc(O)cc2)NC(=O)[C@H](CC(=O)O)NC(=O)CNC1=O` [^64Cu-DOTA-RGD octamer, metal not drawn], the tissue uptake at 2 h in “in vivo [1]” (setting [5]) was 1.7 ± 0.2 %ID/g. In addition, in “in vivo [1]” (U87MG tumor uptake), the tissue uptake at 6 h was found to be 10.5 ± 0.7 %ID/g, the tissue uptake at 20 h is 10.3 ± 1 %ID/g, the tissue uptake at 0.5 h was found to be 11.7 ± 0.7 %ID/g and the tissue uptake at 1 h is 10.6 ± 0.7 %ID/g. In addition, the tissue uptake at 2 h in the data set “in vivo [1]” (U87MG tumor uptake) was 10.6 ± 0.3 %ID/g. Moreover, in “in vivo [2]”, the tissue uptake at 20 h came to 6.6 ± 1.5 %ID/g and the tissue uptake at 1 h worked out at 8.9 ± 2.1 %ID/g. The tissue uptake at 20 h in the data set “in vivo [3]” was determined as 27 ± 3.5 %ID/g.

Regarding `N=C(N)NCCC[C@@H]1NC(=O)[C@H](CCCCNC(=O)CC[C@H](NC(=O)CC[C@H](NC(=O)CN2CCN(CC(=O)O)CCN(CC(=O)O)CCN(CC(=O)O)CC2)C(=O)N[C@@H](CCC(=O)NCCCC[C@@H]2NC(=O)[C@@H](Cc3ccc(O)cc3)NC(=O)[C@H](CC(=O)O)NC(=O)CNC(=O)[C@H](CCCNC(=N)N)NC2=O)C(=O)NCCCC[C@@H]2NC(=O)[C@@H](Cc3ccc(O)cc3)NC(=O)[C@H](CC(=O)O)NC(=O)CNC(=O)[C@H](CCCNC(=N)N)NC2=O)C(=O)NCCCC[C@@H]2NC(=O)[C@@H](Cc3ccc(O)cc3)NC(=O)[C@H](CC(=O)O)NC(=O)CNC(=O)[C@H](CCCNC(=N)N)NC2=O)NC(=O)[C@@H](Cc2ccc(O)cc2)NC(=O)[C@H](CC(=O)O)NC(=O)CNC1=O` [^64Cu-DOTA-RGD tetramer, ^64Cu-DOTA-E{E[c(RGDyK)]2}2, metal not drawn], the tissue uptake at 2 h in the data set “in vivo [1]” (setting [5]) is 2.2 ± 0.1 %ID/g. Besides, in “in vivo [1]” (U87MG tumor uptake), the tissue uptake at 6 h was 7.7 ± 1.6 %ID/g, the tissue uptake at 20 h is 6.4 ± 0.7 %ID/g, the tissue uptake at 0.5 h turned out to be 10.3 ± 1.6 %ID/g and the tissue uptake at 1 h came to 9.6 ± 1.4 %ID/g. The tissue uptake at 2 h in “in vivo [1]” (U87MG tumor uptake) came to 8.6 ± 1 %ID/g. Besides, in the data set “in vivo [2]”, the tissue uptake at 20 h came out at 3.6 ± 0.4 %ID/g and the tissue uptake at 1 h was 4.4 ± 0.9 %ID/g. For the same compound, the tissue uptake at 20 h in “in vivo [3]” stood at 5 ± 0.7 %ID/g. Moreover, the “myocardial tracer uptake after MI induction” value in data set [4] was “occurs in areas supplied by the ligated coronary artery”.
